In patent US20100311694A1, “Set of Geldanamycin Derivatives and Their Preparation Methods” (Institute of Medicinal Biotechnology, Chinese Academy of …, priority 2008, published 2010):

How the values were obtained:
HIV-1 = assay: Anti HIV-1 activity (HIV-1 P24 antigen in cell cultures); type: cell-based; settings: 4 days after addition of the reagents
Protocol: Test Procedure of Anti HIV-1 Activity
8 reagent solutions of different diluted concentrations and positive control solutions are added into cell cultures in 96 well plate respectively. The sample of each diluted solutions is made duplicately and a control cell sample is also is set up. 100 μl of cell sample at a concentration of 2×10^5cells/ml is inoculated into the wells containing reagent in the plate. The cells samples are cultured in a saturated humidity culture chamber (at a 5% CO2 atmosphere) at 37° C. The pathological changes of cells are observed daily.

HBV = assay: Anti-HBV activity (HBV DNA in cell lysate, spot hybridization); type: cell-based; settings: HBV DNA content of the cells, reagent solution changed every 4 days
Protocol: Test Procedure for Anti-HBV Activity
Using cell culture method, the preparation of the cells to be tested (100,000 cell's/mL) is inoculated into cell culture plate in 100 μl each well and the cells are cultured 24 h at 37° C. in 5% CO2. Tests are carried out when the cells grow into a monolayer. The target compounds as well as the controls are prepared into a series of solutions of appropriate concentrations using the culture medium and are added into 96 well culture plate respectively in 4 wells per one concentration. Then the reagent solution in each well is changed into the fresh reagent solution with the same concentration every 4 days. A cell control without reagent treatment is simultaneously is set up. The observation index is based upon the pathological changes of the cells by observing the degrees of the pathological changes of the cells under microscope every 8 days. […] Cell control without drug treatment is simultaneously is set up. The reagent solution or control medium in each well is changed into the fresh reagent solution or fresh medium respectively every 4 days. After cytolysis of the cells, HBV DNA is extracted from the cell lysis solution according to the molecular cloning technical procedure. The spots of different samples are hybridized and the A values of different hybridized spots are measured using autoradiograghic technique. The HBV DNA contents in the cell control as well as in the drug treated samples are calculated using the regression equations obtained from the standard curves to obtain half effective concentration values, the results are shown in Table 1.

Molecule	Activity of HIV inhibition IC50 (HIV-1)	Activity of HBV inhibition IC50 (HBV)
COC1C=CC=C(C)C(=O)NC2=CC(=O)C(NCCCN(CCO)CCO)=C(CC(C)CC(OC)C(O)C(C)C=C(C)C1OC(N)=O)C2=O (centres unmarked) [GM-W43]	0.87 mg/L	0.64 mg/L
COC1C=CC=C(C)C(=O)NC2=CC(=O)C(NC(CO)C(C)C)=C(CC(C)CC(OC)C(O)C(C)C=C(C)C1OC(N)=O)C2=O (centres unmarked) [GM-W58]	1.39 mg/L	0.64 mg/L
COC1C=CC=C(C)C(=O)NC2=CC(=O)C(NC3CCN(c4ccncc4)CC3)=C(CC(C)CC(OC)C(O)C(C)C=C(C)C1OC(N)=O)C2=O (centres unmarked) [GM-W38]	1.59 mg/L	0.64 mg/L
COC1C=CC=C(C)C(=O)NC2=CC(=O)C(NC3CCc4ccccc43)=C(CC(C)CC(OC)C(O)C(C)C=C(C)C1OC(N)=O)C2=O (centres unmarked) [GM-W21]	58.97 mg/L	10.4 mg/L
COC1C=CC=C(C)C(=O)NC2=CC(=O)C(NN3CCN(CCO)CC3)=C(CC(C)CC(OC)C(O)C(C)C=C(C)C1OC(N)=O)C2=O (centres unmarked) [GM-W64]	3.75 mg/L	8.6 mg/L
CO[C@H]1/C=C/C=C(\C)C(=O)NC2=CC(=O)C(NCCCN3CCCC3=O)=C(C[C@H](C)C[C@H](OC)[C@H](O)[C@@H](C)/C=C(\C)[C@H]1OC(N)=O)C2=O [GM-226, 17-(3′-(2″-pyrrolidonyl)propylamino)-17-demethoxy geldanamycin]	>0.14 mg/L	1.6 mg/L
COC(CNC1=C2CC(C)CC(OC)C(O)C(C)C=C(C)C(OC(N)=O)C(OC)C=CC=C(C)C(=O)NC(=CC1=O)C2=O)OC (centres unmarked) [GM-W12]	0.46 mg/L	3.2 mg/L
COC1C=CC=C(C)C(=O)NC2=CC(=O)C(NC(CO)c3cc(Cl)cc(Cl)c3)=C(CC(C)CC(OC)C(O)C(C)C=C(C)C1OC(N)=O)C2=O (centres unmarked) [GM-W81]	2.46 mg/L	2.3 mg/L
COC1C=CC=C(C)C(=O)NC2=CC(=O)C(NCC(O)c3ccccc3)=C(CC(C)CC(OC)C(O)C(C)C=C(C)C1OC(N)=O)C2=O (centres unmarked) [GM-W9]	2.46 mg/L	3.2 mg/L
COC1C=CC=C(C)C(=O)NC2=CC(=O)C(NCCC3CCN(Cc4ccccc4)CC3)=C(CC(C)CC(OC)C(O)C(C)C=C(C)C1OC(N)=O)C2=O (centres unmarked) [GM-W27]	13.81 mg/L	3.9 mg/L
CO[C@H]1/C=C/C=C(\C)C(=O)NC2=CC(=O)C(NC[C@H]3CCCO3)=C(C[C@H](C)C[C@H](OC)[C@H](O)[C@@H](C)/C=C(\C)[C@H]1OC(N)=O)C2=O [THFM(R)-GM, 2′R-17-tetrahydrofurfurylamino-17-demethoxy geldanamycin]	0.05 mg/L	0.01 mg/L
COC1C=CC=C(C)C(=O)NC2=C(NCC3CCCO3)C(=O)C(NCC3CCCO3)=C(CC(C)CC(OC)C(O)C(C)C=C(C)C1OC(N)=O)C2=O [THFM + 2, 17,19-di-(S)-tetrahydrofurfuryl amino-17-demethoxy geldanamycin]	0.18 mg/L	0.10 mg/L
C=CC(C)(CCC=C(C)CCC=C(C)CCC=C(C)C)OC(=O)CCCNC1=C2CC(C)CC(OC)C(O)C(C)C=C(C)C(OC(N)=O)C(OC)C=CC=C(C)C(=O)NC(=CC1=O)C2=O (centres unmarked) [GM-W84]	1.24 mg/L	0.8 mg/L
COC1C=CC=C(C)C(=O)NC2=CC(=O)C(NCCO)=C(CC(C)CC(OC)C(O)C(C)C=C(C)C1OC(N)=O)C2=O (centres unmarked) [GM-W42]	0.091 mg/L	0.01 mg/L
COC1C=CC=C(C)C(=O)NC2=CC(=O)C(Nn3cnnc3)=C(CC(C)CC(OC)C(O)C(C)C=C(C)C1OC(N)=O)C2=O (centres unmarked) [GM-W77]	8.97 mg/L	7.36 mg/L
COC1C=CC=C(C)C(=O)NC2=CC(=O)C(NCCCN3CCCCC3C)=C(CC(C)CC(OC)C(O)C(C)C=C(C)C1OC(N)=O)C2=O (centres unmarked) [GM-W47]	1.84 mg/L	3.87 mg/L
COC1C=CC=C(C)C(=O)NC2=CC(=O)C(NCc3ccncc3)=C(CC(C)CC(OC)C(O)C(C)C=C(C)C1OC(N)=O)C2=O (centres unmarked) [GM-W1]	36.7 mg/L	0.69 mg/L
CCN1CCC[C@H]1CNC1=C2C[C@H](C)C[C@H](OC)[C@H](O)[C@@H](C)/C=C(\C)[C@@H](OC(N)=O)[C@@H](OC)/C=C/C=C(\C)C(=O)NC(=CC1=O)C2=O [GM-206S, 17-(2″S-2″-(N-ethylpyrrolidinyl)-methylamino)-17-demethoxy geldanamycin]	0.01 mg/L	0.064 mg/L
COC1C=CC=C(C)C(=O)NC2=CC(=O)C(NC(C)Cc3c[nH]c4ccccc34)=C(CC(C)CC(OC)C(O)C(C)C=C(C)C1OC(N)=O)C2=O (centres unmarked) [GM-W89]	1.68 mg/L	2.36 mg/L
COC1C=CC=C(C)C(=O)NC2=CC(=O)C(NCc3cncc(C)n3)=C(CC(C)CC(OC)C(O)C(C)C=C(C)C1OC(N)=O)C2=O (centres unmarked) [GM-W2]	19.6 mg/L	8.0 mg/L
COC1C=CC=C(C)C(=O)NC2=CC(=O)C(NC(C)(CO)CO)=C(CC(C)CC(OC)C(O)C(C)C=C(C)C1OC(N)=O)C2=O (centres unmarked) [GM-W6]	1.47 mg/L	1.32 mg/L
17-diethyloxy phosphoryl methylene amino-17-demethoxy geldanamycin [GM-GP]	1.36 mg/L	3.24 mg/L
COC1C=CC=C(C)C(=O)NC2=CC(=O)C(NCCCN3CCOCC3)=C(CC(C)CC(OC)C(O)C(C)C=C(C)C1OC(N)=O)C2=O (centres unmarked) [GM-W75]	1.21 mg/L	0.1 mg/L
COC1C=CC=C(C)C(=O)NC2=CC(=O)C(NCc3ccc(C)o3)=C(CC(C)CC(OC)C(O)C(C)C=C(C)C1OC(N)=O)C2=O (centres unmarked) [GM-W88]	0.24 mg/L	0.08 mg/L
COC1C=CC=C(C)C(=O)NC2=CC(=O)C(NCCN3CCOCC3)=C(CC(C)CC(OC)C(O)C(C)C=C(C)C1OC(N)=O)C2=O (centres unmarked) [GM-APML, 17-(2′-(1″-oxa-4″-azacyclohexyl-1″-)ethylamino)-17-demethoxy geldanamycin]	<0.01 mg/L	0.064 mg/L
